From patent US20050176733A1, “Chk-1 inhibitors” (Millennium Pharmaceuticals, Inc., priority 2004, published 2005)

Target: T1, Recombinant human Chk-1 (GST-Chk-1) (Homo sapiens, UniProt O14757)
T1 construct: made in house; host or cells: insect cells (baculovirus, Bac-to-Bac expression system)
T1 sequence (O14757 1-476): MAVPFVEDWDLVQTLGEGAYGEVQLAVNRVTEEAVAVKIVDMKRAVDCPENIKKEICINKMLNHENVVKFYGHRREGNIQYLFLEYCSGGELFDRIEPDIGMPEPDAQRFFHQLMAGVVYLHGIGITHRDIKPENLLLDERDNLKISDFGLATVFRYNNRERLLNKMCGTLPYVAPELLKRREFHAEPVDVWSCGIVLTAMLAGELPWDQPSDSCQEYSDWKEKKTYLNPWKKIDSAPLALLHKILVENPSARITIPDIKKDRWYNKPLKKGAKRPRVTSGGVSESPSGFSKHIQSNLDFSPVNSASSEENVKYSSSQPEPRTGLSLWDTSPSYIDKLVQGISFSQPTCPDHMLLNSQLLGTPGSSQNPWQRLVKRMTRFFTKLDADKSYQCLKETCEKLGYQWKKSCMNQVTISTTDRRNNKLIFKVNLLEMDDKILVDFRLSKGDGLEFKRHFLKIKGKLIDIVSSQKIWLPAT
Assay: Chk-1 FlashPlate Kinase Assay
Type: biochemical
Conditions: for inhibition at 1 µM: at a concentration of 1.0 μM; for inhibition at 10 µM: at a concentration of 10 μM, read-out: inhibition of Chk-1 (Chk-1 induced 33P incorporation)
Protocol: Recombinant human Chk-1 was expressed as a fusion protein with glutathione S-transferase at the amino-terminus (GST-Chk-1) using standard baculovirus vectors and (Bac-to-Bac®) insect cell expression system purchased from GIBCO™ Invitrogen.
Recombinant protein expressed in insect cells was purified using glutathione sepharose (Amersham Biotech) using standard procedures described by the manufacturer.
Assays (25 μL) contained 8.7 nM GST-Chk-1, 10 mM MES, 0.1 mM ethylene glycol-bis(β-aminoethylether)-N,N,N′,N′-tetraacetic acid (EGTA, pH 8.0), 2 mM DTT, 0.05% Tween 20, 3 μM peptide substrate (Biotin-ILSRRPSYRKILND-free acid) (SEQ ID NO: 1), 1 μM ATP, 0.4 μCi ^33P-γ-ATP (NEN), 4% DMSO. Reactions were incubated for 30 minutes at room temperature, terminated with 50 μL of 50 mM EDTA and […] were transferred to streptavidin-coated FlashPlates® (NEN) and incubated for 1 hour at room temperature. Plates were washed with phosphate buffered saline containing 0.01% Tween-20 and 10 mM sodium pyrophosphate. Plates were dried, sealed with Topseal™ (NEN) and amount of ^33P incorporated into the peptide substrate measure using a Packard Topcount® NXT™ scintillation counter with standard settings.

inhibition at 1 µM [%]	inhibition at 10 µM [%]	SMILES
≥ 50	≥ 50	N#Cc1ccc(NC(=O)Nc2cc(Cl)ccc2OCCCNC(=O)N2CCOCC2)nc1 [Compound I-12, Morpholine-4-carboxylic acid (3-{4-chloro-2-[3-(5-cyano-pyridin-2-yl)-ureido]-phenoxy}-propyl)-amide]
≥ 50	≥ 50	Cc1cnc(NC(=O)Nc2ccc(N3CCN(C)CC3)cc2OCCCNC(=O)c2ccc(Cl)cc2)cn1 [Compound I-13, 4-Chloro-N-(3-{5-(4-methyl-piperazin-1-yl)-2-[3-(5-methyl-pyrazin-2-yl)-ureido]-phenoxy}-propyl)-benzamide]
≥ 50	≥ 50	Cc1cnc(NC(=O)Nc2cc(Cl)ccc2OCCCNC(=O)c2ccc(N(C)C)cc2)cn1 [Compound I-15, N-(3-{4-Chloro-2-[3-(5-methyl-pyrazin-2-yl)-ureido]-phenoxy}-propyl)-4-dimethylamino-benzaminde]
≥ 50	≥ 50	Cc1cnc(NC(=O)Nc2cc(Cl)ccc2OCCCNC(=O)[C@@H](N)Cc2ccc(Cl)cc2)cn1 [Compound I-16, 2-Amino-N-(3-{4-chloro-2-[3-(5-methyl-pyrazin-2-yl)-ureido]-phenoxy}-propyl)-3-(4-chloro-phenyl)-propionamide]
≥ 50	≥ 50	CN1CCN(C(=O)NCCCOc2ccc(Cl)cc2NC(=O)Nc2ccc(C#N)cn2)CC1 [Compound I-18, 4-Methyl-piperazine-1-carboxylic acid (3-{4-chloro-2-[3-(5-cyano-pyridin-2-yl)-ureido]-phenoxy}-propyl)-amide]
–	≥ 50	Cc1cnc(NC(=O)Nc2cc(C(=O)N3CCN(C)CC3)ccc2OCCCNC(=O)c2ccc(Cl)cc2)cn1 [Compound I-20, 4-Chloro-N-(3-{4-(4-methyl-piperazine-1-carbonyl)-2-[3-(5-methyl-pyrazin-2-yl)-ureido]-phenoxy}-propyl)-benzamide]
≥ 50	≥ 50	CN(C)CC(=O)NCCCOc1ccc(Cl)cc1NC(=O)Nc1ccc(C#N)cn1 [Compound I-39, N-(3-{4-Chloro-2-[3-(5-cyano-pyridin-2-yl)-ureido]-phenoxy}-propyl)-2-dimethylamino-acetamide]
≥ 50	≥ 50	Cc1cnc(NC(=O)Nc2cc(Cl)ccc2OCCCNC(=O)C(N)c2ccc(Cl)cc2)cn1 (centres unmarked) [Compound I-111, 2-Amino-N-(3-{4-chloro-2-[3-(5-methyl-pyrazin-2-yl)-ureido]-phenoxy}-propyl)-2-(4-chloro-phenyl)-acetamide]

Further lines, the compound ahead of its results:

SMILES	inhibition at 1 µM [%]	inhibition at 10 µM [%]
NC(=O)c1ccc(NC(=O)Nc2cc(Cl)ccc2OCCCNC(=O)[C@@H](N)Cc2ccc(Cl)cc2)nc1 [Compound I-2, 6-[3-(2-{3-[2-Amino-3-(4-chloro-phenyl)-propionylamino]-propoxy}-5-chloro-phenyl)-ureido]-nicotinamide]	≥ 50	≥ 50
Cc1cnc(NC(=O)Nc2cc(Cl)ccc2OCCCNC(=O)CN(C)C)cn1 [Compound I-4, N-(3-{4-Chloro-2-[3-(5-methyl-pyrazin-2-yl)-ureido]-phenoxy}-propyl)-2-dimethylamino-acetamide]	≥ 50	≥ 50
Cc1cnc(NC(=O)Nc2cc(Cl)ccc2OCCCNC(=O)N2CCOCC2)cn1 [Compound I-5, Morpholine-4-carboxylic acid (3-{4-chloro-2-[3-(5-methyl-pyrazin-2-yl)-ureido]-phenoxy}-propyl)-amide]	≥ 50	≥ 50
Cc1cnc(NC(=O)Nc2cc(Cl)ccc2OCCCNC(=O)CN2CCOCC2)cn1 [Compound I-6, N-(3-{4-Chloro-2-[3-(5-methyl-pyrazin-2-yl)-ureido]-phenoxy}-propyl)-2-morpholin-4-yl-acetamide]	≥ 50	≥ 50
Cc1cnc(NC(=O)Nc2cc(Cl)ccc2OCCCNC(=O)CN2CCN(C)CC2)cn1 [Compound I-7, N-(3-{4-Chloro-2-[3-(5-methyl-pyrazin-2-yl)-ureido]-phenoxy}-propyl)-2-(4-methyl-piperazin-1-yl)-acetamide]	≥ 50	≥ 50
Cc1cnc(NC(=O)Nc2cc(Cl)ccc2OCC(=O)N2CCOCC2)cn1 [Compound I-8, 1-[5-Chloro-2-(2-morpholin-4-yl-2-oxo-ethoxy)-phenyl]-3-(5-methyl-pyrazin-2-yl)-urea]	≥ 50	≥ 50
Cc1cnc(NC(=O)Nc2cc(C(=O)NCCN(C)C)ccc2OCCCNC(=O)c2ccc(Cl)cc2)cn1 [Compound I-9, 4-[3-(4-Chloro-benzoylamino)-propoxy]-N-(2-dimethylamino-ethyl)-3-[3-(5-methyl-pyrazin-2-yl)-ureido]-benzamide]	≥ 50	≥ 50
Cc1cnc(NC(=O)Nc2ccc(N3CCCC3)cc2OCCCNC(=O)c2ccc(Cl)cc2)cn1 [Compound I-10, 4-Chloro-N-(3-{2-[3-(5-methyl-pyrazin-2-yl)-ureido]-5-pyrrolidin-1-yl-phenoxy}-propyl)-benzamide]	–	≥ 50
Cc1cnc(NC(=O)Nc2ccc(N3CCCC3)cc2OCCCNC(=O)CN(C)C)cn1 [Compound I-11, 2-Dimethylamino-N-(3-{2-[3-(5-methyl-pyrazin-2-yl)-ureido]-5-pyrrolidin-1-yl-phenoxy}-propyl)-acetamide]	≥ 50	≥ 50
CN1CCN(C(=O)CCCOc2ccc(Cl)cc2NC(=O)Nc2ccc(C#N)cn2)CC1 [Compound I-14, 1-{5-Chloro-2-[4-(4-methyl-piperazin-1-yl)-4-oxo-butoxy]-phenyl}-3-(5-cyano-pyridin-2-yl)-urea]	≥ 50	≥ 50
N#Cc1ccc(NC(=O)Nc2cc(Cl)ccc2OCCCC(=O)N2CCOCC2)nc1 [Compound I-110, 1-[5-Chloro-2-(4-morpholin-4-yl-4-oxo-butoxy)-phenyl]-3-(5-cyano-pyridin-2-yl)-urea]	–	≥ 50
